Results: ChEMBL document CHEMBL1124698, “Squalene analogues containing isopropylidene mimics as potential inhibitors of pig liver squalene epoxidase and oxidosqualene cyclase” (J Med Chem, 1989)

Key:
Squalene monooxygenase = Squalene monooxygenase (Homo sapiens, UniProt Q14534); assay: Inhibitory activity against Squalene Epoxidase in pig liver; NI-No inhibitory effect at 400 uM; design: species or system Sus scrofa; settings: target entry is the homologue from another species
Lanosterol synthase = target: T1, Lanosterol synthase (Rattus norvegicus, UniProt P48450); assay: Inhibitory activity against Oxidosqualene-lanosterol cyclase in pig liver; NI-No inhibitory effect at 400 uM; design: species or system Sus scrofa; settings: target entry is the homologue from another species
T1 sequence (P48450 whole entry): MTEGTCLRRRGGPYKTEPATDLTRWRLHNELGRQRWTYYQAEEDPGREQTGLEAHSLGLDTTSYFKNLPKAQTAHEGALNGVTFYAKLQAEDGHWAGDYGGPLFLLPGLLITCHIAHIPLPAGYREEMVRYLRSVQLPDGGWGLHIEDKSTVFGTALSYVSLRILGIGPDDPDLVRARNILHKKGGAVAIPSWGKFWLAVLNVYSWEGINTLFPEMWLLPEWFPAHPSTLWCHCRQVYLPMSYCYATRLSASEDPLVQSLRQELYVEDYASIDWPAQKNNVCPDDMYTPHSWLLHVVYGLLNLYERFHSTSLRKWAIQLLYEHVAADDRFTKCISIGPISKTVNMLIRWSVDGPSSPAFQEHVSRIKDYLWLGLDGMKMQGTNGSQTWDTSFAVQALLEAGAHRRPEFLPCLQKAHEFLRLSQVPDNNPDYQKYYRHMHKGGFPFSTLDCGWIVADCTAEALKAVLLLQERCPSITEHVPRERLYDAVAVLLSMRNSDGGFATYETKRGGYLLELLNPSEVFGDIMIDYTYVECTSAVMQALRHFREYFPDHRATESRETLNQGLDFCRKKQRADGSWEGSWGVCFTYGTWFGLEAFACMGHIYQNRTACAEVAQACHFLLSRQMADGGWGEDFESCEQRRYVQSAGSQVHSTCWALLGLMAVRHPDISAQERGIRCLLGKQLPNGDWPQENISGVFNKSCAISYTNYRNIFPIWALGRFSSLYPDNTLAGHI

Sequence of Squalene monooxygenase (Q14534 whole entry): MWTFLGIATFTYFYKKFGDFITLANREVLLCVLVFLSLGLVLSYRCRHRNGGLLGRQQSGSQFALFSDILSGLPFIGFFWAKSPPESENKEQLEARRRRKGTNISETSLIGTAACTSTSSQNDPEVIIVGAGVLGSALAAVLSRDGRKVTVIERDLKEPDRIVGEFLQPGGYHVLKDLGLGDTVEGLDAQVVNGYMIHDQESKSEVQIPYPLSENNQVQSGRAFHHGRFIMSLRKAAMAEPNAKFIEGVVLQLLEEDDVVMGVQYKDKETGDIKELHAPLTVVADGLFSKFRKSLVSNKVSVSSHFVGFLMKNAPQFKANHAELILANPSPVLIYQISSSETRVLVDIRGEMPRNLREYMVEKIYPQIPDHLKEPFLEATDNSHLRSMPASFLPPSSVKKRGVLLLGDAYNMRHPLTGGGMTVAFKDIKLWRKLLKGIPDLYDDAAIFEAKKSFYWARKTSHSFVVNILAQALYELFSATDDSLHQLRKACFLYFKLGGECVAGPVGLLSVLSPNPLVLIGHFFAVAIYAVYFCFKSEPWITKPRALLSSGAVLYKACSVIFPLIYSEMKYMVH

IC50 (Squalene monooxygenase) | IC50 (Lanosterol synthase) | Compound
No inhibition | – | C#CCC/C(C)=C/CC/C(C)=C/CC/C=C(\C)CC/C=C(\C)CCC=C(C)C
No inhibition | No inhibition | C=C=CCC/C(C)=C/CC/C(C)=C/CC/C=C(\C)CC/C=C(\C)CCC=C(C)C
